PubChem BioAssay (NCI)
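Cells were grown in 96-well plates and exposed to each compound for 48 hours at five concentrations; endpoints were interpolated linearly between bracketing concentrations, or set to the highest concentration if not reached. GI50 marks 50% less growth. The concentration for full growth arrest is given as TGI.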

Key:
Assay in all cases: NCI anticancer screen, dose series, 48 h
SK-MEL-2 melanoma = system: SK-MEL-2 melanoma
LOX IMVI melanoma = system: LOX IMVI melanoma
RPMI-8226 leukemia = system: RPMI-8226 leukemia
HS 578T breast = system: HS 578T breast
T-47D breast = system: T-47D breast
HT29 colon = system: HT29 colon
SK-OV-3 ovarian = system: SK-OV-3 ovarian
NCI-H460 lung = system: NCI-H460 lung

SMILES	GI50 (SK-MEL-2 melanoma) [nM]	TGI (SK-MEL-2 melanoma) [µM]	GI50 (LOX IMVI melanoma) [nM]	TGI (LOX IMVI melanoma) [µM]	GI50 (RPMI-8226 leukemia) [nM]	GI50 (HS 578T breast) [nM]	TGI (HS 578T breast) [µM]	GI50 (T-47D breast) [nM]	TGI (T-47D breast) [µM]	GI50 (HT29 colon) [nM]	TGI (HT29 colon) [µM]	GI50 (SK-OV-3 ovarian) [nM]	TGI (SK-OV-3 ovarian) [µM]	GI50 (NCI-H460 lung) [nM]	TGI (NCI-H460 lung) [µM]	TGI (RPMI-8226 leukemia) [µM]
C[C@H]1[C@@H](OCC(CO[C@H]2O[C@@H]3O[C@@]4(C)CC[C@H]5[C@H](C)CC[C@@H]([C@H]2C)[C@@]35OO4)=NOCC(=O)O)OC2O[C@@]3(C)CC[C@H]4[C@H](C)CC[C@@H]1[C@@]24OO3 (some centres undefined)	346	14.8	< 10	13.3	< 10	719	22.4	< 10	0.331	< 10	15	786	19.6	53.7	19.5	
Cn1cnc([N+](=O)[O-])c1Sc1ncnc2c1ncn2C1OC(CO)C(O)C1O (centres undefined)	8900	> 100	1710	> 100	2930	27800	> 100	5010	> 100	7300	> 100	564	> 100	5720	> 100	> 100
CCNCCNc1cc(-c2ccc(F)cc2)c(C#N)c2nc3ccccc3n12	14200	28.3	1820	3.45	2860	3150	12.5	2260	4.63	3060	11	13500	26.4	3360	10.8	7.58
COc1ccc2c(c1)OC13Oc4cc(OC)ccc4C=C1CCCC3=C2	> 100000	> 100	> 100000	> 100	6120	> 100000	> 100	4700	> 100	> 100000	> 100	> 100000	> 100	> 100000	> 100	> 100
CC(C)C(N)(C(=O)O)c1ccccc1 (centres undefined)		> 100		> 100			> 100		> 100		> 100		> 100		> 100	> 100
Oc1c(CN2CCCC2)cc(COCc2ccccc2)c2cccnc12	4680	20.1	798	5.61	3840	8710	58.7	2970	15.4	10400	26.5	2020	9.27	774	11.8	19.4
CCNCC(O)c1ccc(N)c([N+](=O)[O-])c1 (centres undefined)		> 100		> 100			> 100		> 100		> 100		> 100		> 100	> 100
Fc1ccc(-c2ncn(C3CCNCC3)c2-c2ccnc(Oc3cccc(F)c3)n2)cc1	> 25000	> 25	10500	> 25	24600	> 12000	24.8	13800	> 25	4500	8.6	> 22100	> 25	7460	> 21.8	> 25
COc1ccc(/C=C\c2cc(OC)c(OC)c(OC)c2)c(NS(=O)(=O)c2ccc(C)cc2)c1O	1450	> 100	50.9	> 100	50.2	48.3	> 100	21000	> 100	813	> 45.7	685	> 100	35.1	> 37.9	23.9
C#Cc1ccc(NC(=O)c2ccc(/C=C/C(=O)c3nccn3C)cc2)cc1	1630	6.68	365	0.711	115	853	11.9	521	2.44	540	1.32	979	24.3	586	1.64	0.672
C[C@@H]1CC[C@@]2(OC1)O[C@H]1C[C@H]3[C@@H]4CC=C5C[C@@H](O[C@@H]6O[C@H](CO)[C@@H](O[C@@H]7O[C@@H](CO)[C@H](O)[C@H]7O)[C@H](O)[C@H]6O[C@@H]6O[C@@H](C)[C@H](O)[C@@H](O)[C@H]6O)CC[C@]5(C)[C@H]4CC[C@]3(C)[C@H]1[C@@H]2C	1670	3.04	332	1.19	1090		2.49	1390	2.73	1060	2.46	1620	3.04	928	2.29	2.4
CC1OC(O)C(O)C(O)C1O (centres undefined)		> 100		> 100			> 100		> 100		> 100		> 100		> 100	> 100
COc1ccc(/C=C(\C#N)c2cc3ccccc3n2C)cc1	471	> 100	577	> 100	388	352	> 100	389	> 100	347	> 34.1	787	> 100	389	37.9	> 100
O=C(/C=C/c1ccco1)Nc1ncc(Cc2ccc(F)cc2)s1	115	> 100	91.8	> 100	72.1	124	> 100	30	> 100	36.6	> 100	45.5	> 100	39.7	> 100	> 100
O=C1/C(=C/c2cccs2)CCC/C1=C\c1cccs1	47800	> 100	> 100000	> 100	> 100000	29200	> 100	2130	> 72.8	> 100000	> 100	26500	74.2	> 76400	> 100	> 100
